Laboratory results as given in patent publication US20140363871A1, “PROCESS FOR OBTAINING COPPER NANOPARTICLES FROM A FUNGUS SELECTED BETWEEN HYPOCREA LIXII AND TRICHODERMA KONINGIOPSIS AND USE OF FUNGI SELECTED BETWEEN HYPOCREA LIXII AND TRICHODERMA KONINGIOPSIS IN BIOREMEDIATION OF WASTEWATER AND PRODUCTION OF COPPER NANOPARTICLES” (VALE S.A., priority 2013, published 2014).

Tests used:
H. lixii = test: Minimum inhibitory concentration in agar medium (spot plate method); assay type: cell-based, Hypocrea lixii; conditions: H. lixii on SDA plates with copper 50-2000 mg L^−1, 25° C., at least 5 days
Method: (§1) Copper tolerance of the isolated fungus was determined as the minimum inhibitory concentration (MIC) by the spot plate method [Ahmad I, Ansari M I, Aqil F (2006) Biosorption of Ni, Cr and Cd by metal tolerante Aspergillus niger and Penicillium sp using single and multi-metal solution. Indian J Exp Biol 44: 73-76]. SDA plates containing different concentrations of copper (50 to 2000 mg L^−1) were prepared and inocula of the tested fungus were spotted onto the metal and control plates (plate without metal). The plates were incubated at 25° C. for at least 5 days. The MIC is defined as the lowest concentration of metal that inhibits visible growth of the isolate.

T. koningiopsis = test: as above; assay type: cell-based, Trichoderma koningiopsis; conditions: T. koningiopsis on SDA plates with copper 50-2000 mg L^−1, 25° C., at least 5 days
Method: as §1

O.O.[Cl][Cu][Cl] [copper, CuCl2.2H2O]
minimum inhibitory concentration (MIC), tolerance to copper (H. lixii): 528 mg/L | minimum inhibitory concentration (MIC), tolerance to copper (T. koningiopsis): 1057 mg/L
